According to ChEMBL document CHEMBL1201862, “PubChem BioAssay data set” (2004):
Calls of active or inactive are those of the source.

Columns and labels:
[1] = biological target: Melanin-concentrating hormone receptor 1 (Homo sapiens, UniProt Q99705); experiment: Fluorescence-based counterscreen for antagonists of the G-protein coupled receptor 7 (GPR7): cell-based high throughput dose response assay to identify antagonists of the melanin-concentrating hormone receptor 1 (MCHR1).; type: functional
[2] = biological target: T1, Neuropeptides B/W receptor type 1 (Homo sapiens, UniProt P48145); experiment: Fluorescence-based dose response cell-based high throughput screening assay to identify antagonists of the G-protein coupled receptor 7 (GPR7). [Related pubchem assays: 1952 (Screening assay (GPR7 antagonists).), 1880 (Summary AID.)]; type: functional
T1 sequence (P48145 whole entry): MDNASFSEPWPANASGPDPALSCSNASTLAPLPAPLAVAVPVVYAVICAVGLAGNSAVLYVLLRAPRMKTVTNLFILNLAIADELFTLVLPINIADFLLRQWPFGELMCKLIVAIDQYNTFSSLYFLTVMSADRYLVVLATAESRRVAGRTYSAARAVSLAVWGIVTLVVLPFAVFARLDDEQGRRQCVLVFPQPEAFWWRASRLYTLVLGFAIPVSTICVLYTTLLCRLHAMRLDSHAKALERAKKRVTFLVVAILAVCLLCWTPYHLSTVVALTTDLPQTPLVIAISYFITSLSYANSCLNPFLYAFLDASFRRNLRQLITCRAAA

[3] = biological target: Acyl-homoserine lactone acylase PvdQ (Pseudomonas aeruginosa (strain LESB58), UniProt Q9I194); experiment: P. aeruginosa PvdQ acylase inhibitors, dose response, biochemical, fluorescence, plate reader and imaging, cherry-picks (AID 493231)
[4] = biological target: T2, Luciferin 4-monooxygenase (Photinus pyralis, UniProt P08659); experiment: Counter Screen for Luciferase-based Assay Positives. [Related pubchem assays: 620, 618, 411 ]
[5] = Luminescence Cell-Based Dose Response HTS to Identify Inhibitors of 5'UTR Stem-Loop Driven Prion Protein mRNA Translation in H4 Neuroglioblastoma Cells. [Related pubchem assays: 1827 (Project Summary), 1813 (Primary HTS)]; type: functional
HT-1080 = experiment: cytotoxicity in HT1080 fibrosarcoma cells, cell-based, fluorescence readout (AID 620); type: functional; details: Homo sapiens
[6] = inhibitors of SNCA 5'UTR-driven reporter translation, confirmation, H4 neuroglioma cells, luminescence (AID 1988); type: functional, cell-based
[7] = biological target: T3, Mannose-6-phosphate isomerase (Homo sapiens, UniProt P34949); experiment: inhibitors of human PMI, primary screen, biochemical, fluorescence intensity, coupled assay (AID 1209)
T3 sequence (P34949 whole entry): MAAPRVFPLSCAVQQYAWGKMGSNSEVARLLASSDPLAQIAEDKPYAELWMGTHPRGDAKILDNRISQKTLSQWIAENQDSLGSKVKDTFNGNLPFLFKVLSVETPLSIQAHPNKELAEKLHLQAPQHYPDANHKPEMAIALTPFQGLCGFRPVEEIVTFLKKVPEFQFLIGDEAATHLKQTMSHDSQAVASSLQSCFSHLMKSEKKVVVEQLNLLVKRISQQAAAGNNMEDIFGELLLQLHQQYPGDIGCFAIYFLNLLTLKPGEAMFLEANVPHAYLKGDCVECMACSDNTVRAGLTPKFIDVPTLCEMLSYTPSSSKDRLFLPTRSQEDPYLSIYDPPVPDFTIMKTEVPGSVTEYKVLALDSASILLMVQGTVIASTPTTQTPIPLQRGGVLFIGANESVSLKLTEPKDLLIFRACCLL

[8] = biological target: T4, Heat shock 70 kDa protein 1A (Homo sapiens, UniProt P0DMV8); experiment: Hsp70 inhibitors, probe displacement, primary screen, biochemical, fluorescence polarization (AID 583)
[9] = biological target: T4, Heat shock 70 kDa protein 1A; experiment: Hsp70 inhibitors, biochemical, TR-FRET (AID 786)
[10] = HEp-2 cell cytotoxicity, dose response, cytotoxicity control for RSV inhibitor project, HTS (AID 2410); type: functional; details: human respiratory syncytial virus
[11] = biological target: Lysosomal acid glucosylceramidase (Homo sapiens, UniProt P04062); experiment: Dose response cell-based high throughput screening assay to identify enhancers of beta-glucosidase activity. [Related pubchem assays: 784 ]; type: functional
[12] = biological target: Polyadenylate-binding protein 1 (Homo sapiens, UniProt P11940); experiment: PABP poly(A) RNA binding inhibitors, primary screen, biochemical, fluorescence polarization, uHTS (AID 2014)
[13] = biological target: Eukaryotic translation initiation factor 4H (Homo sapiens, UniProt Q15056); experiment: human eIF4H binding inhibitors, primary screen, translation initiation inhibitor project, biochemical, uHTS, fluorescence polarization (AID 2012)
INS1 = experiment: beta cell apoptosis inhibitors, cytokine rescue, dose response, luminescence, retest (AID 449756); type: functional, cell-based; details: Rattus norvegicus;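 further: cell death triggered by IL-1 beta plus TNF-alpha plus IFN-gamma mixture; protective hits raise ATP signal compared with cytokine alone wells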
[14] = insulin promoter down-regulators in MIN6 cells, imaging, high-content screening, mouse beta cells (AID 1628); type: functional
[15] = cytotoxicity in MIN6 insulinoma cells, dose response, cytotoxicity control, cell-based, mouse insulinoma (AID 2122); type: functional;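 further: confirmatory high-throughput counterscreen run to flag cytotoxic compounds; mouse MIN-6 beta cells carrying an insulin promoter eGFP reporter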
Protein Rev = Protein Rev (Human immunodeficiency virus type 1 group M subtype B (isolate WMJ22)(HIV-1), UniProt P05866); experiment: HIV-1 Rev-RRE RNA binding disruptors, dose response, biochemical, protein-RNA interaction (AID 842); design: species or system Human immunodeficiency virus 1
[16] = biological target: FAD-linked sulfhydryl oxidase ALR (Homo sapiens, UniProt P55789); experiment: inhibitors of human ALR sulfhydryl oxidase, dose response, biochemical, H2O2 detection, luminescence, cherry-pick (AID 493248)
Estrogen receptor beta [17] = biological target: T5, Estrogen receptor beta (Homo sapiens, UniProt Q92731);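 further: recombinant ER-beta bound to coactivator SRC1 peptide in presence of estradiol agonist; inhibitors block coactivator peptide binding and lower the FRET signal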
Estrogen receptor beta [18] = biological target: T5, Estrogen receptor beta; experiment: ERβ–SRC-3 coactivator interaction inhibitors, confirmation, orthogonal assay, biochemical, ELISA, streptavidin-HRP readout (AID 1060)
Estrogen receptor = biological target: T6, Estrogen receptor (Homo sapiens, UniProt P03372);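 further: potency for inhibiting coactivator peptide recruitment to the receptor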
T6 sequence (P03372 whole entry): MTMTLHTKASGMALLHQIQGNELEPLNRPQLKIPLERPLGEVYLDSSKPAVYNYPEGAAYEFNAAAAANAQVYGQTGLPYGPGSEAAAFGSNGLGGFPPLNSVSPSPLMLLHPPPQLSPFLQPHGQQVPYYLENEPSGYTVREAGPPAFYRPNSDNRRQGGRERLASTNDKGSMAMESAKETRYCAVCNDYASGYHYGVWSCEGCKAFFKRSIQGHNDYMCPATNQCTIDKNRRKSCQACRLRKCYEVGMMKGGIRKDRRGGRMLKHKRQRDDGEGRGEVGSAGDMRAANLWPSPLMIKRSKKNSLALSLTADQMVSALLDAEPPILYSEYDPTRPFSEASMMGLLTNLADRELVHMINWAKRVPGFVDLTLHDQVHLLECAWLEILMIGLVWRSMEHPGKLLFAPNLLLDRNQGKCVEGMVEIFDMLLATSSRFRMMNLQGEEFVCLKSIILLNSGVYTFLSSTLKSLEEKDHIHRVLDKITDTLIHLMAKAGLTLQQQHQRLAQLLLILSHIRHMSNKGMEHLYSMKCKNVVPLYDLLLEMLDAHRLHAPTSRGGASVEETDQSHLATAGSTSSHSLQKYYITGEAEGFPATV

Vero = experiment: cells; type: functional, cell-based; details: Chlorocebus sabaeus
cells [19] = experiment: cells
[20] = luciferase reporter signal reduction – luminescence, H4-C neuroglioblastoma cells, dose response (AID 2458); type: functional, cell-based;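 further: H4 neuroglioblastoma cells stably carrying a luciferase reporter gene fusion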
[21] = biological target: T2, Luciferin 4-monooxygenase; experiment: firefly luciferase enzyme inhibitors, dose response, biochemical, luminescence (AID 1891)
[22] = inhibitors of firefly luciferase expression or activity, dose response, H4 neuroglioma cells, luminescence (AID 1990); type: functional, cell-based
[23] = Luminescence Cell-Based Dose Confirmation HTS to Identify Inhibitors of Platelet Dense Granule Release. [Related pubchem assays: 1663 (Primary HTS), 1678 (Summary of Project)]; type: functional
[24] = inhibitors of SNCA 5'UTR-driven translation, confirmation, luminescence, H4 neuroglioblastoma cells, dose confirmation (AID 2454); type: functional, cell-based;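 further: H4 neuroglioblastoma cells carrying an alpha-synuclein 5'UTR luciferase reporter; potency for inhibition of the luciferase signal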
cells [25] = type: functional, cell-based
[26] = growth suppression of PTEN-null colon cells, dose response, cell-based, HCT116 PTEN knockout (AID 1047); type: functional;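 further: HCT116 colon tumor cells with PTEN knocked out; cells exposed to compound for 60 hours before readout; potency for loss of cell viability measured by luminescence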
[27] = A Cell Based Secondary Assay To Explore Cytotoxicity of Compounds that Sensitize Mycobacterium Tuberculosis to Beta-Lactam Antibiotics.; type: functional
[28] = growth suppression of beta-catenin-knockout colon cells, dose response, cell-based, HCT116, human colon tumor (AID 1045); type: functional;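 further: HCT116 colon tumor cells with beta catenin knocked out; cells exposed to compound for 60 hours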
H9c2 = experiment: cells; type: functional, cell-based; details: Rattus norvegicus, H9c2, Myocardium;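 further: confirmatory concentration-response retest of ultra-high-throughput screening hits for modulation of myocardial damage; cell death induced by hydrogen peroxide oxidative stress; compound pretreatment for 60 min then peroxide exposure for 2 h; potency is for protecting the cells against peroxide damage rather than for killing them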
Leucine aminopeptidase = biological target: T7, Leucine aminopeptidase (Plasmodium falciparum 3D7, UniProt Q8IL11); experiment: P. falciparum M17LAP inhibitors, primary screen, biochemical, fluorogenic H-Leu-NHMec substrate, 1536-well (AID 1619); type: functional
T7 sequence (Q8IL11 whole entry): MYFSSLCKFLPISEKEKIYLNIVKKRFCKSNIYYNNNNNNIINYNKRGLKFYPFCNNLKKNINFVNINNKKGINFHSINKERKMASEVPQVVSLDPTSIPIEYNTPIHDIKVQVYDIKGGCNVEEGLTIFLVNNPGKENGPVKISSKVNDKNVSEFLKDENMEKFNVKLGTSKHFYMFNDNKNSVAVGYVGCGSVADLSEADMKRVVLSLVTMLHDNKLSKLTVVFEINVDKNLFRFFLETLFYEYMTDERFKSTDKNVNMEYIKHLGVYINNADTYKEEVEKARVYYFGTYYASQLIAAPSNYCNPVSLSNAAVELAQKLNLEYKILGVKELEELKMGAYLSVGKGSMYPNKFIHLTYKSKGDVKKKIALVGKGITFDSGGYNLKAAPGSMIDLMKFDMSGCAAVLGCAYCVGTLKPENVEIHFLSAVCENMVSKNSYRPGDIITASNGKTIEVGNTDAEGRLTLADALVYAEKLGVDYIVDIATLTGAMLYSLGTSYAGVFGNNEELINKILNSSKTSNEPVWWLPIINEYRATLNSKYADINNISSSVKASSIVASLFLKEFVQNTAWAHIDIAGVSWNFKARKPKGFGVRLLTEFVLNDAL

T4 sequence (P0DMV8 whole entry): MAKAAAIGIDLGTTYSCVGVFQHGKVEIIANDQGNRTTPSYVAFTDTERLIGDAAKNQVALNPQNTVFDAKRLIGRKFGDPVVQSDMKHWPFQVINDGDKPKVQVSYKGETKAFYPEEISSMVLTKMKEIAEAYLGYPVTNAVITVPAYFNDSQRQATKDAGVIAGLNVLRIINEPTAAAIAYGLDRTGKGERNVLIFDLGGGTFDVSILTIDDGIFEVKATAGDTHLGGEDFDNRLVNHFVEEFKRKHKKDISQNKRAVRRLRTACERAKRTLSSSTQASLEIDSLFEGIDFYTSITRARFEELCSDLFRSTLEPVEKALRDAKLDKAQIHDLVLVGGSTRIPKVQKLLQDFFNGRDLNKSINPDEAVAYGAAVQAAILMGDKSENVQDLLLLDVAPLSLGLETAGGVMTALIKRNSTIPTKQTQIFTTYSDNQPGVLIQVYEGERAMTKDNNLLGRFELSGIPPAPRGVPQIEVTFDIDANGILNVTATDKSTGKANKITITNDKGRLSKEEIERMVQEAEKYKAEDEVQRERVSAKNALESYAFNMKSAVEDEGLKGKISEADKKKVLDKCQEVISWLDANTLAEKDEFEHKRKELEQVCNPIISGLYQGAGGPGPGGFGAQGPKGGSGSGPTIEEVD
T2 sequence (P08659 whole entry): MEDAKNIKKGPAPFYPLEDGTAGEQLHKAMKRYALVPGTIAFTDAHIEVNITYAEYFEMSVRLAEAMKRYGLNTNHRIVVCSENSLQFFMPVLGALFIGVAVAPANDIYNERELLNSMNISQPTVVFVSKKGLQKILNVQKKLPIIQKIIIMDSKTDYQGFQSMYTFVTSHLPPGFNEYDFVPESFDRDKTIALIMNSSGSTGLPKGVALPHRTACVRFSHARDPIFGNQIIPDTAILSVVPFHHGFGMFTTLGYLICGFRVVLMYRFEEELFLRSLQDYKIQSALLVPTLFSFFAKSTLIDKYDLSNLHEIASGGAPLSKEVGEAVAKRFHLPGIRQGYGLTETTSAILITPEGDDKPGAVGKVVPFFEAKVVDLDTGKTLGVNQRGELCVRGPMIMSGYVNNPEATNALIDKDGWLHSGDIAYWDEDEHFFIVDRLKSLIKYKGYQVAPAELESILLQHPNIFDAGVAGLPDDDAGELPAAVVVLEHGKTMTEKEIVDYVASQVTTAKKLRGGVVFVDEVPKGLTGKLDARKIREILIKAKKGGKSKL
T5 sequence (Q92731 whole entry): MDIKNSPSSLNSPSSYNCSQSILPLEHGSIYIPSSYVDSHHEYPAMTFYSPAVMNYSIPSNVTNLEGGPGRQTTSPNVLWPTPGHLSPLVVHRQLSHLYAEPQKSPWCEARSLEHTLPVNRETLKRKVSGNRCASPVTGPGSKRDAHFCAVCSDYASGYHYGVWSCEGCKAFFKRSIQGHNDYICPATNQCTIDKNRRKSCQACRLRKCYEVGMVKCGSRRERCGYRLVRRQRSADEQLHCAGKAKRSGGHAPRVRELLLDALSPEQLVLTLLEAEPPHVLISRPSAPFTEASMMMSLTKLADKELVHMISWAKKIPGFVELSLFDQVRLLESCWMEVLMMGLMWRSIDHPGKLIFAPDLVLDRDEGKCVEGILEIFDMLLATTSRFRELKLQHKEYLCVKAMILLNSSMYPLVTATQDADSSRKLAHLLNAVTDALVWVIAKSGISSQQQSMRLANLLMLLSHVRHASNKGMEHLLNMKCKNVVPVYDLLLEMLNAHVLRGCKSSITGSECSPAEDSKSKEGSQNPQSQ
Chain of Acyl-homoserine lactone acylase PvdQ (Q9I194 24-193 limits assumed): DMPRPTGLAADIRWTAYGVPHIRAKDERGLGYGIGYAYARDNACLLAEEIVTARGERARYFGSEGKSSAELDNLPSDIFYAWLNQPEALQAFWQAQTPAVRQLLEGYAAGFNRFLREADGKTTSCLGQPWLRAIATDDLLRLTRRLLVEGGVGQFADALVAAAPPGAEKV
Chain of Acyl-homoserine lactone acylase PvdQ (Q9I194 217-762 limits assumed): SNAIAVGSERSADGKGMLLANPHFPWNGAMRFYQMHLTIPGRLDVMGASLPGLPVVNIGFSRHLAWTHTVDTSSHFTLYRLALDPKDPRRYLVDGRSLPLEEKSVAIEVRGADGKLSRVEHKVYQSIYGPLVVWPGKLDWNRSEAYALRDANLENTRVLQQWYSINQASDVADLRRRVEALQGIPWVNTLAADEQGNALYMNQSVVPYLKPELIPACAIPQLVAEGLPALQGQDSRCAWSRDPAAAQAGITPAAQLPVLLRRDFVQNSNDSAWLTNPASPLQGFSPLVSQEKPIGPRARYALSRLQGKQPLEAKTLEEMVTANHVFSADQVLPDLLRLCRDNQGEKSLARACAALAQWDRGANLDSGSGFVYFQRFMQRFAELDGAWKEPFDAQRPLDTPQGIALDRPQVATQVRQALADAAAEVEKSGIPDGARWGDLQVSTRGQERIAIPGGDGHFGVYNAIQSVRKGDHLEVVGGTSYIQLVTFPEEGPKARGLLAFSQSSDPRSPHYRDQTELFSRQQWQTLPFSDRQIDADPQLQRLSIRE
Chain of Lysosomal acid glucosylceramidase (P04062 whole entry): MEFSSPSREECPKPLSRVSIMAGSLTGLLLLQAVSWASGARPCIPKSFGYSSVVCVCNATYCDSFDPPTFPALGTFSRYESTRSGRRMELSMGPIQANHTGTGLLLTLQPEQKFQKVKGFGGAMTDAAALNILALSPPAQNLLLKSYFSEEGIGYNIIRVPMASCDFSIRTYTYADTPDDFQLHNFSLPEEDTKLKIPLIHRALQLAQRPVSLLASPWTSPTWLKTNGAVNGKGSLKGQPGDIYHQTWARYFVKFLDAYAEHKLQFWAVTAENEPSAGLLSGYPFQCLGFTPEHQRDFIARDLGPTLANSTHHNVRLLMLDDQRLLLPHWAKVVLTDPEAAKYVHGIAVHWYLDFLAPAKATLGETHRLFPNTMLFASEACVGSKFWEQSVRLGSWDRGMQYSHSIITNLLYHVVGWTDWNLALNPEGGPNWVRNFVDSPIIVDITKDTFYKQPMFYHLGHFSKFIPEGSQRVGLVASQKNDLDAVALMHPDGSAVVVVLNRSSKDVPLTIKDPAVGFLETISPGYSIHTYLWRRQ
Chain of Polyadenylate-binding protein 1 (P11940 whole entry): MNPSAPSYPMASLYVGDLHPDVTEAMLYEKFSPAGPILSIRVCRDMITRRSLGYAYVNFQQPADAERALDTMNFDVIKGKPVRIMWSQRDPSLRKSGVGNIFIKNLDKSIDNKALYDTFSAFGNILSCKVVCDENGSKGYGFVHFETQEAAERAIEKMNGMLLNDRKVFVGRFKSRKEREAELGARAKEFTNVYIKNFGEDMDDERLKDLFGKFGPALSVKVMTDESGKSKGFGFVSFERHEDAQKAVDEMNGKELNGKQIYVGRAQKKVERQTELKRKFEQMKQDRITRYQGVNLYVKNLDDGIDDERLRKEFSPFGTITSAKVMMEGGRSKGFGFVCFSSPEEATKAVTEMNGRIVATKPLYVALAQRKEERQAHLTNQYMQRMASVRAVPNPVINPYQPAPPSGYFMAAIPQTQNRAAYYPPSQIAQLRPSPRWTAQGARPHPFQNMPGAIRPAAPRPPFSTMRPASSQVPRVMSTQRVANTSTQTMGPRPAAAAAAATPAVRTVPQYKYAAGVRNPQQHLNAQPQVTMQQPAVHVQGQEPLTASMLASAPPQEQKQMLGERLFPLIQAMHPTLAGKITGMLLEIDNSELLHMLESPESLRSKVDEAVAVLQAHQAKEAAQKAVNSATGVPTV
Chain of Melanin-concentrating hormone receptor 1 (Q99705 whole entry): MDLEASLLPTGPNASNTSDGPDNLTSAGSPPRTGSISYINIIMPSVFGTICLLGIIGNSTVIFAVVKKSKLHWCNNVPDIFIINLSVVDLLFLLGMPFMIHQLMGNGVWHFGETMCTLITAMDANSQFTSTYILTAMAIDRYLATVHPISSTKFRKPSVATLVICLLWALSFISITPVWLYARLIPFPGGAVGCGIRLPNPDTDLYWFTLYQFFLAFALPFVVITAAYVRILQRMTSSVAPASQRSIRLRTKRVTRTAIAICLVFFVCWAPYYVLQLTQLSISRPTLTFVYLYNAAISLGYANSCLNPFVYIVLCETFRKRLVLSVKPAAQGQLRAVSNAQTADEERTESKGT
Chain of Protein Rev (P05866 whole entry): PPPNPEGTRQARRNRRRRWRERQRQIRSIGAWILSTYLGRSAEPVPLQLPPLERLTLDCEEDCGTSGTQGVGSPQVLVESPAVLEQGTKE
Chain of FAD-linked sulfhydryl oxidase ALR (P55789 whole entry): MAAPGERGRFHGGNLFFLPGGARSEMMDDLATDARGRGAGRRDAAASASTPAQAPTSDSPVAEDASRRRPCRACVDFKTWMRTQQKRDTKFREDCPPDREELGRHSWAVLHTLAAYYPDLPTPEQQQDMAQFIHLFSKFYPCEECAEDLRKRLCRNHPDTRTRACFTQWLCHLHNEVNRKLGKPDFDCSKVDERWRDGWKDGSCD

O=C(c1cnccn1)N(Cc1cccs1)C1(C(=O)NC2CCCC2)CCCCC1
IC50 [1]: > 43.8 µM (not active) | IC50 [2]: > 43.8 µM (not active)

N#CC(c1ccc(Cl)cc1)c1ncc(C(F)(F)F)cc1Cl (stereo unspecified)
AC50 [3]: 0.939 µM (active)

Cc1csc(NC(=O)C2COc3ccccc3O2)n1 (stereo unspecified)
EC50 [4]: 0.56 µM (active) | EC50 [5]: 10.7 µM (inconclusive) | EC50 (HT-1080): > 50 µM (not active) | EC50 [6]: 7.32 µM (active)

COc1ccccc1N1C(=O)CC(Sc2n[nH]c(-c3cccc(C)c3)n2)C1=O (stereo unspecified)
IC50 [7]: 48.1 µM (active)

CCOC(=O)CNC(=O)CNC(=O)Cn1ccc2ccccc2c1=O
IC50 [8]: > 100 µM (not active) | IC50 [9]: > 100 µM (not active)

O=c1cccc2n1CC1CC2CN(Cc2cccc(Cl)c2Cl)C1 (stereo unspecified)
CC50 [10]: 23.1 µM (active) | EC50 [11]: > 50 µM (not active)

O=C(CN1CCN(S(=O)(=O)/C=C/c2ccccc2)CC1)NC(=O)NCc1ccco1
IC50 [12]: > 100 µM (inactive) | IC50 [13]: 13.1 µM (active)

C[n+]1c2n(c3ccccc31)N=C(c1ccc(Cl)cc1)CS2
AC50 (INS1): 4.54 µM (active) | IC50 [14]: 2.51 µM (active) | IC50 [15]: 1.49 µM (active) | IC50 (Protein Rev): > 79.4 µM (not active) | AC50 [16]: 0.425 µM (active)

CC12CCCCC1(O)[N+](=O)C1=C(CCCC1)N2[O-] (stereo unspecified)
IC50 (Estrogen receptor beta [17]): 10.9 µM (active) | IC50 (Estrogen receptor beta [18]): 2.85 µM (not active)

CCn1nccc1C(=O)Nc1ccc(Cl)cn1
IC50 [8]: > 100 µM (not active) | IC50 [9]: > 100 µM (not active)

CCOc1ccc(NC2=NC(=O)S/C2=C\c2ccc(OC)cc2)cc1
IC50 (Estrogen receptor beta [17]): > 50 µM (not active) | IC50 (Estrogen receptor beta [18]): 99.9 µM (not active) | IC50 (Estrogen receptor): 18.8 µM (active)

CCC(=O)N1c2ccc(S(=O)(=O)NCc3ccco3)cc2CC1C (stereo unspecified)
IC50 [12]: 24.1 µM (active) | IC50 [13]: 10.2 µM (active)

CSc1nnc(-c2ccc([N+](=O)[O-])cc2)o1
AC50 [3]: 6.96 µM (active)

Nc1ccc(C(=O)OCc2nc3cc4ccccc4cc3[nH]2)cc1
IC50 (Vero): 3.67 µM (active) | IC50 (cells [19]): 23.6 µM (active) | CC50 [10]: 36.6 µM (active)

CCN(CC)c1ccc(C2=NNC(=O)CC2C)cc1[N+](=O)[O-] (stereo unspecified)
EC50 [20]: 0.05 µM (active) | EC50 [21]: > 112 µM (not active) | EC50 [22]: < 0.1 µM (active) | EC50 [23]: 0.504 µM (active) | EC50 [24]: 0.123 µM (active) | EC50 (cells [25]): 0.194 µM (active) | EC50 [6]: < 0.1 µM (active)

COc1ccc(OC)c(C2CC(c3c(O)nc4ccc(Cl)cc4c3-c3ccccc3)=NN2S(C)(=O)=O)c1 (stereo unspecified)
EC50 [26]: 9.08 µM (active) | CC50 [27]: > 40 µM (active) | EC50 [28]: 11.3 µM (active)

CN(CC1COc2ccccc2O1)c1nc(-c2cccnc2)nc2ccccc12 (stereo unspecified)
IC50 (H9c2): 24.4 µM (active) | EC50 [11]: 2.65 µM (active)

CCOC(=O)c1[nH]c2ccc(OC)cc2c1NS(=O)(=O)c1ccc(OC)cc1OC
IC50 [1]: > 43.8 µM (not active) | IC50 [2]: > 43.8 µM (not active)

Cc1cnc(NC(=O)C2COc3ccccc3O2)s1 (stereo unspecified)
EC50 [4]: 1.95 µM (active) | EC50 (HT-1080): > 50 µM (not active)

CC(=O)NNC(=S)NC(=O)c1cccc([N+](=O)[O-])c1
IC50 (Leucine aminopeptidase): 45.8 µM (active) | IC50 [7]: > 50 µM (not active)

Cc1ccc(/C=N\NC(=O)C2CN(S(=O)(=O)c3ccccc3)CCN2S(=O)(=O)c2ccccc2)cc1 (stereo unspecified)
IC50 (cells [19]): 13.6 µM (active)
